Results taken from patent publication US20260069693A1, “UROLITHINS AND T-CELL MEDIATED IMMUNE RESPONSE” (priority 2022, published 2026).

What was measured:
[1] = system: FoxP3+ T regulatory cells; conditions: cited from earlier work
Nalm-6 cells = test: CD19-CAR T cell killing assay; assay type: cell-based, human; conditions: 24 h co-culture, CAR T cells generated with UA vs DMSO
Method: The cytotoxic activity of CD19-CAR T cells generated in presence or absence of UA was determined by CD19-positive Nalm-6 cell killing. Three days post transduction, CAR expression was determined and normalized to equal CAR T cell levels. Cells were washed twice and 0.5×10^4 CAR T cells were seeded into NutriT medium without cytokines, UA or DMSO. Nalm-6 cells were labeled using CellTrace™ Violet (CTV; Thermo Fisher Scientific, C34557) following manufacturer's instructions and 1×10^4 labeled Nalm-6 cells were added to the CAR T cells (0.5:1 effector to target ratio). The amount of dead target cells was determined via flow cytometry 24 h after start of killing.

human CD3^+ T cells = test: aCD3/aCD28 stimulation of human T cells in presence of UA; assay type: cell-based
Text: Finally, the inventors aimed to determine whether UA causes expansion of TSCM cells in human CD8^+ T cells. The inventors isolated human CD3^+ T cells from PBMCs of healthy donors and stimulated them with aCD3/aCD28 beads in vitro in the presence of UA (FIG. 6A). Indeed, UA increased the frequency of human TSCM cells based on the expression of CD45RA^+CCR7^HiCD62L^+CD95^+CD8^+ in five out of five individual donors (FIG. 6B).
Splenic murine T cells were isolated from mice aged 6-20 weeks by negative selection with EasySep mouse T cell isolation kit (Stem cell) according to the manufacturer's instructions. To monitor T cell proliferation, purified T cells were loaded with CellTrace Violet (C34557 ThermoFisher Scientific). T cell activation was initiated using αCD3/CD28 activation beads (11456D; ThermoFisher Scientific) at a ratio of 25 μl dynabeads per 0.5×10^6 T-cells. Cells were activated with 25-50 μM Urolithin A (Tocris) or DMSO in T cell activation Medium (RPMI (ThermoFisher Scientific) 10% FBS (South America origin), 10 mM Hepes (Sigma), 1× Non-Essential Amino Acid, 1 mM Sodium Pyruvate, 50 μM B-Mercaptoethanol, 100 U/ml penicillin, 100 μg/ml streptomycin and 2 mM Glutamax (ThermoFisher Scientific) for the indicated durations. In selected experiments, cells were stimulated in the presence of inhibitors, namely TCF1i (ICG-001; SelleckChem; 10 μM) and PGC-1αi (SR-18292, Sigma-Aldrich; 10 μm,). For subsequent analysis, activating beads were magnetically removed prior antibody staining. For human T cells, peripheral blood mononuclear cells were purified with a Ficoll-Paque (GE healthcare) gradient. […]
For flow cytometric analysis of mitochondria and lysosomes 500 μl of Mitotracker Red (200 nM; ThermoFisher) or Lysotracker Red DND-99 (75 nM; ThermoFisher) were applied followed by surface staining. […] Cell proliferation was assessed by CellTrace Violet (Invitrogen, C34557) at a concentration of 5 μM according to manufacturer's instructions. […]

Pink1^−/− T cells = test: aCD3/aCD28 stimulation of Pink1-/- T cells in presence of UA; assay type: cell-based, mice
Text: UA activates mitophagy in myocytes and hippocampal neurons via a Pink1/Parkin mediated stress-response (D'Amico et al., 2021). […] Moreover, UA stabilized Parkin protein expression (FIG. 4G). To functionally confirm the dependence of UA induced TSCM formation on Pink1/Parkin mediated mitophagy, the inventors activated Pink1^−/− T cells in the presence or absence of UA. Loss of Pink1 prevented the UA-induced lysosome formation as well as the decrease in mitochondrial content (FIG. 4H, I).
Splenic murine T cells were isolated from mice aged 6-20 weeks by negative selection with EasySep mouse T cell isolation kit (Stem cell) according to the manufacturer's instructions. To monitor T cell proliferation, purified T cells were loaded with CellTrace Violet (C34557 ThermoFisher Scientific). T cell activation was initiated using αCD3/CD28 activation beads (11456D; ThermoFisher Scientific) at a ratio of 25 μl dynabeads per 0.5×10^6 T-cells. Cells were activated with 25-50 μM Urolithin A (Tocris) or DMSO in T cell activation Medium (RPMI (ThermoFisher Scientific) 10% FBS (South America origin), 10 mM Hepes (Sigma), 1× Non-Essential Amino Acid, 1 mM Sodium Pyruvate, 50 μM B-Mercaptoethanol, 100 U/ml penicillin, 100 μg/ml streptomycin and 2 mM Glutamax (ThermoFisher Scientific) for the indicated durations. In selected experiments, cells were stimulated in the presence of inhibitors, namely TCF1i (ICG-001; SelleckChem; 10 μM) and PGC-1αi (SR-18292, Sigma-Aldrich; 10 μm,). For subsequent analysis, activating beads were magnetically removed prior antibody staining. For human T cells, peripheral blood mononuclear cells were purified with a Ficoll-Paque (GE healthcare) gradient. T cells were enriched with EasySep Human T Cell Isolation Kit (StemCell) and activated with dynabead Human T-Activator CD3/CD28 for T Cell Expansion and Activation Kit (11131D; ThermoFisher Scientific), similar to murine T cell stimulation.
For flow cytometric analysis of mitochondria and lysosomes 500 μl of Mitotracker Red (200 nM; ThermoFisher) or Lysotracker Red DND-99 (75 nM; ThermoFisher) were applied followed by surface staining. To study changes in mitochondrial membrane potential, Mitoprobe TMRM kit (ThermoFisher) was used according to the manufacturer's instructions. Cell proliferation was assessed by CellTrace Violet (Invitrogen, C34557) at a concentration of 5 μM according to manufacturer's instructions. For human samples, cells were stained as described above with Fixable Viability Dye-eF780, αCD95-BV421 (DX2; 562616), αCD62L-PE (DREG-56; 555544), αCCR7-AF700 (150503; 561143), αCD45RO-APC (UCHL; 559865), αCD45RA-FITC (HI100; 555488), αCD8-PE-CF594 (RPA-T8; 562282) and αCD4-BV786 (OKT4; 566806) from BD.

O=c1oc2cc(O)ccc2c2ccc(O)cc12 [UA, Urolithin A]
FoxP3+ T regulatory cells [1]: expanding
CD19 CAR-T cell mediated killing of NALM-6 leukemia cells (Nalm-6 cells): did not have a negative impact
frequency of human TSCM cells (CD45RA+CCR7HiCD62L+CD95+CD8+) (human CD3^+ T cells; 48 h, UA 50 μM, five out of five individual donors): increased
TCF1 expression in human CD8+ T cells (human CD3^+ T cells; 48 h, intracellular staining): increased
mitochondrial membrane potential of human CD8+ T cells (human CD3^+ T cells; after 48 hours): decreased
UA-induced lysosome formation (Pink1^−/− T cells; Loss of Pink1, 6 h, UA 50 μM): prevented
UA-induced decrease in mitochondrial content (Pink1^−/− T cells; Loss of Pink1, 48 h, UA 50 μM): prevented
cytoplasmic expression of Pgam5 (Pink1^−/− T cells; Pink1-/- CD8+ T cells upon UA exposure): lack of cytoplasmic expression
PGC-1a (Pink1^−/− T cells; Pink1-/- CD8+ T cells, 48 h, UA 50 μM): failed to enhance
TSCM phenotype (Pink1^−/− T cells; Pink1-/- CD8+ T cells, 48 h, UA 25 and 50 μM): failed to exhibit a TSCM phenotype
TCF-1 in CD44-CD62L+CD8+ T cells (Pink1^−/− T cells; Pink1-/-, 48 h, UA 50 μM): less
